According to paper PMC10878397, “Development of Potent Dual BET/HDAC Inhibitors via Pharmacophore Merging and Structure-Guided Optimization” (ACS Chemical Biology, 2024):
Where two headings read alike, the source gives them in different places.

Columns and labels:
[1] = test system: HCC2429 cells; assay: CellTiter-Glo cell viability assay; format: cell-based; conditions: Homo sapiens, HCC2429, 72 h; treatment for 3 days
Description: (§1) PDAC cell line PaTu8988T was obtained from ATCC and cultured in Dulbecco’s modified Eagle’s medium (DMEM) containing 10% FBS, 25 mM glucose, […], 1 mM sodium pyruvate, and 1% penicillin–streptomycin. Nut midline carcinoma cell line HCC2429 was kindly provided by Lead Discovery Center GmbH (Dortmund, Germany) and was cultured in RPMI1640 medium containing 10% FBS, 2 mM L-glutamine, and 1% penicillin–streptomycin. Cell line PaTu8988T was authenticated using the Multiplex human Cell line Authentication Test (MCA) by Multiplexion GmbH, and cell line HCC2429 was authenticated using short tandem repeat (STR) profiling.
(§2) The assays were performed using Promega’s CellTiter-Glo Luminescent Cell Viability Assay kit (Cat. #G7571). First, compounds dissolved in DMSO were printed in 96-well plates (Corning) by using a Tecan D300e digital dispenser. Then, cells were seeded into the compound-printed plates using a Thermo Multidrop reagent dispenser. 72 h later, one volume of diluted CellTiter-Glo reagent (1:4 dilution with PBS) was added to individual wells by using the Thermo Multidrop reagent dispenser again. Plates were shaken for 2 min and incubated for 10 min in the dark. Luminescent signals were read by using a Tecan Spark Multimode Microplate Reader. The values were normalized to the DMSO control wells and presented as a percentage of cell viability. Dose–response curves were drawn with GraphPad Prism 8.

[2] = test system: PaTu8988T cells; assay: CellTiter-Glo cell viability assay; format: cell-based; conditions: Homo sapiens, PaTu 8988t, 72 h; treatment for 3 days
Description: as §1, §2

[3] = target: T1, TAF1 (1) (Homo sapiens, UniProt P21675); assay: DSF bromodomain selectivity panel; format: binding; conditions: 10 μM compound
T1 construct: TAF1 (1); purchased in-house (SGC Frankfurt recombinant bromodomain DSF panel)
T1 sequence (P21675 1397-1505 limits assumed): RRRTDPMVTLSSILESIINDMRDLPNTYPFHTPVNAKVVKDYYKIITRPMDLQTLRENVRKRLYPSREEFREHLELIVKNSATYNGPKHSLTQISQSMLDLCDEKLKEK
Description: (§3) The effects of inhibitor binding on the apparent melting temperature of recombinant bromodomains were determined by DSF in a 96-well plate (Starlab) at a protein concentration of 2 μM with 10 μΜ compound in buffer containing 25 mM HEPES, pH 7.5, 150 mM NaCl, and 0.5 mM TCEP. […] Protein unfolding profiles were recorded using an MX3005P real-time qPCR instrument (Agilent; excitation/emission filters = 492/610 nm) while increasing the temperature from 25 to 95 °C at a heating rate of 3 °C/min. Tm values were calculated after fitting the fluorescence curves to the Boltzmann equation. Differences in melting temperature upon compound binding are given as ΔTm = Tm (protein with inhibitor) – Tm (protein with DMSO control). Measurements were performed in triplicates.

[4] = target: T2, BRPF1B (Homo sapiens, UniProt P55201); assay: DSF bromodomain selectivity panel; format: binding; conditions: 10 μM compound
T2 construct: purchased in-house (SGC Frankfurt recombinant bromodomain DSF panel)
Description: as §3

[5] = target: T3, BRDT(1) (Homo sapiens, UniProt Q58F21); assay: DSF bromodomain selectivity panel; format: binding; conditions: 10 μM compound
T3 construct: BRDT(1); purchased in-house (SGC Frankfurt recombinant bromodomain DSF panel)
Description: as §3

[6] = target: T4, BRD1 (Homo sapiens, UniProt O95696); assay: DSF bromodomain selectivity panel; format: binding; conditions: 10 μM compound
T4 construct: purchased in-house (SGC Frankfurt recombinant bromodomain DSF panel)
T4 sequence (O95696 whole entry): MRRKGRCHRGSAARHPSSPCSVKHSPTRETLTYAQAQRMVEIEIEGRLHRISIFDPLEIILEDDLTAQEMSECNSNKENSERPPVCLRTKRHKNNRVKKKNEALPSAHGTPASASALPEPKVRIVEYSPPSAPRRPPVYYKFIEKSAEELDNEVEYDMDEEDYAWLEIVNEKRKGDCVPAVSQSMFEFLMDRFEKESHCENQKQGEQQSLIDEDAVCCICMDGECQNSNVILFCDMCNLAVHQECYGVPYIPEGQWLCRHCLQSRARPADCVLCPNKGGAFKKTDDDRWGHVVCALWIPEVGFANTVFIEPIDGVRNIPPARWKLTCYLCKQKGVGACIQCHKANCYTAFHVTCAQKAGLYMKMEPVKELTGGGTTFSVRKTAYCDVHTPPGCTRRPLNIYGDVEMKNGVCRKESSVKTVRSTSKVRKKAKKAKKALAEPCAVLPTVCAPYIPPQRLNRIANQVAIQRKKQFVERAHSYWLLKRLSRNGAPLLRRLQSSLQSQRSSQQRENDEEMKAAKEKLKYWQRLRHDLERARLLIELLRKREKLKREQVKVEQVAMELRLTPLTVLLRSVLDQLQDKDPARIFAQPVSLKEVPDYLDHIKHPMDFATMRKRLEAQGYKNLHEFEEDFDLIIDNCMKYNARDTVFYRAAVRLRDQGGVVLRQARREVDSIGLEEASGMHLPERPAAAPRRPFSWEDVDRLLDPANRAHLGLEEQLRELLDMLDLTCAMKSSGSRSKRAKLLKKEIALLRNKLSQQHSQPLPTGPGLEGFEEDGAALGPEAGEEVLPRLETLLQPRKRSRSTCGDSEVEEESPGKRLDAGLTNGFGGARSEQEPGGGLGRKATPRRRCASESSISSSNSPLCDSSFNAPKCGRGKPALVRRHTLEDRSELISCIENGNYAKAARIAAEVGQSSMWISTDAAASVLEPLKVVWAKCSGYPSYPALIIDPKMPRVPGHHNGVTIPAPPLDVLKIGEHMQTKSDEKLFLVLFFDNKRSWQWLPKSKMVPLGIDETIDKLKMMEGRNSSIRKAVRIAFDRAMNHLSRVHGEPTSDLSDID
Description: as §3

[7] = target: T5, BRD2 (1) (Homo sapiens, UniProt P25440); assay: DSF bromodomain selectivity panel; format: binding; conditions: 10 μM compound
T5 construct: BRD2 (1); purchased in-house (SGC Frankfurt recombinant bromodomain DSF panel)
T5 sequence (P25440 71-194 limits assumed): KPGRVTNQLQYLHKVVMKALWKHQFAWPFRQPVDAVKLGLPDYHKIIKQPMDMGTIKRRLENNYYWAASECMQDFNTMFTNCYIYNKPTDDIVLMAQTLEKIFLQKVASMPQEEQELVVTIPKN
Description: as §3

[8] = target: T6, BRD3 (2) (Homo sapiens, UniProt Q15059); assay: DSF bromodomain selectivity panel; format: binding; conditions: 10 μM compound
T6 construct: BRD3 (2); purchased in-house (SGC Frankfurt recombinant bromodomain DSF panel)
T6 sequence (Q15059 306-416 limits assumed): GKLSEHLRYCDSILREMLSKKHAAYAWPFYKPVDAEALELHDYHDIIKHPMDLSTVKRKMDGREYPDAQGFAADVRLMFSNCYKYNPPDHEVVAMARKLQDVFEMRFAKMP
Description: as §3

[9] = target: T7, TRIM33B (Homo sapiens, UniProt Q9UPN9); assay: DSF bromodomain selectivity panel; format: binding; conditions: 10 μM compound, construct containing tandem PHD-BD
T7 construct: purchased in-house (SGC Frankfurt recombinant bromodomain DSF panel)
T7 sequence (Q9UPN9 1-1110 isoform Q9UPN9-2): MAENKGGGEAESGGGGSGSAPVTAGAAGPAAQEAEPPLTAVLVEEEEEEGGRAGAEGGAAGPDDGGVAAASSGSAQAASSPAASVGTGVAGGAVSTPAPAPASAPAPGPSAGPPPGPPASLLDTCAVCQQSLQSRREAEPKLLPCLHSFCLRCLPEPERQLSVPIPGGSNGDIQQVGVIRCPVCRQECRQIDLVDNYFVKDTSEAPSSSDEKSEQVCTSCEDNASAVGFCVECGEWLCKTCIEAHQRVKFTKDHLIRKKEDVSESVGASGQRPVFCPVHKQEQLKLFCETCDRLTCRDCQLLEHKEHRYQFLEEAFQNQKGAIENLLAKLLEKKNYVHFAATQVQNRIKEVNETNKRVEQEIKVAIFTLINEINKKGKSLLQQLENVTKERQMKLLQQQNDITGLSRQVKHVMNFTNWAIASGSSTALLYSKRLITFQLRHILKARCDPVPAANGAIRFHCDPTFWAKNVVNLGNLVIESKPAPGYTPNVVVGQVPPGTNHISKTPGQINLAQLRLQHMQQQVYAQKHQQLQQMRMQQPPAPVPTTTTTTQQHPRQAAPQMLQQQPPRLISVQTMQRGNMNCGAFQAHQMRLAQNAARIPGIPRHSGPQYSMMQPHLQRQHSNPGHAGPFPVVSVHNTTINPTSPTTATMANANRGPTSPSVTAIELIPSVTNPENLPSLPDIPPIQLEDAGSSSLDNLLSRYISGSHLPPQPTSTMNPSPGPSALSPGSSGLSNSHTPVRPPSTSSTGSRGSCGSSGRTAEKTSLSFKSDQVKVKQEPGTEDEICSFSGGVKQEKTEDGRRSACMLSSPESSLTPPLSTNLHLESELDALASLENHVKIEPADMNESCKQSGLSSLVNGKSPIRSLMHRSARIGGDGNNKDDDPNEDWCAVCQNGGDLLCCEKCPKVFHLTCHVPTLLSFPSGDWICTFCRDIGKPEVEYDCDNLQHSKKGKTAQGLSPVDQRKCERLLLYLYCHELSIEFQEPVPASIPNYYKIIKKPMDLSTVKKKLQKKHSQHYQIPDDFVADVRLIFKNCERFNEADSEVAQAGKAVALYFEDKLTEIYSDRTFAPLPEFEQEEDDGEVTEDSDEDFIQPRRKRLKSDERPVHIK
Description: as §3

[10] = target: T8, TAF1LA (1) (Homo sapiens, UniProt Q8IZX4); assay: DSF bromodomain selectivity panel; format: binding; conditions: 10 μM compound
T8 construct: TAF1LA (1); purchased in-house (SGC Frankfurt recombinant bromodomain DSF panel)
T8 sequence (Q8IZX4 1392-1522 limits assumed): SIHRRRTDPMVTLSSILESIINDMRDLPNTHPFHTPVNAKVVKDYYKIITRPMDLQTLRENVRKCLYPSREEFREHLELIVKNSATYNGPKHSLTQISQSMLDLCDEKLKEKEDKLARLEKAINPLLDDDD
Description: as §3

[11] = target: T9, BRPF3 (Homo sapiens, UniProt Q9ULD4); assay: DSF bromodomain selectivity panel; format: binding; conditions: 10 μM compound
T9 construct: purchased in-house (SGC Frankfurt recombinant bromodomain DSF panel)
Description: as §3

[12] = target: T10, TAF1LA (2) (Homo sapiens, UniProt Q8IZX4); assay: DSF bromodomain selectivity panel; format: binding; conditions: 10 μM compound
T10 construct: TAF1LA (2); purchased in-house (SGC Frankfurt recombinant bromodomain DSF panel)
T10 sequence (Q8IZX4 1523-1654 limits assumed): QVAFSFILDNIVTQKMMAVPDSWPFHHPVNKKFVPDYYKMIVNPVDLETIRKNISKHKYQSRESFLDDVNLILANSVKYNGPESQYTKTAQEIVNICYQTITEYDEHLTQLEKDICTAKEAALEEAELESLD
Description: as §3

[13] = target: T11, PB1A(6) (Homo sapiens, UniProt Q86U86); assay: DSF bromodomain selectivity panel; format: binding; conditions: 10 μM compound
T11 construct: PB1A(6); purchased in-house (SGC Frankfurt recombinant bromodomain DSF panel)
T11 sequence (Q86U86 773-914 limits assumed): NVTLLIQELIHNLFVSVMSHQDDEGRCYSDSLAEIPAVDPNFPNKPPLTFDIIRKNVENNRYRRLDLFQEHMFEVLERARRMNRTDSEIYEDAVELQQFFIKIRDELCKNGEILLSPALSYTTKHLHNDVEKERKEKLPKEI
Description: as §3

[14] = target: T12, TAF1 (2) (Homo sapiens, UniProt P21675); assay: DSF bromodomain selectivity panel; format: binding; conditions: 10 μM compound
T12 construct: TAF1 (2); purchased in-house (SGC Frankfurt recombinant bromodomain DSF panel)
T12 sequence (P21675 1522-1656 limits assumed): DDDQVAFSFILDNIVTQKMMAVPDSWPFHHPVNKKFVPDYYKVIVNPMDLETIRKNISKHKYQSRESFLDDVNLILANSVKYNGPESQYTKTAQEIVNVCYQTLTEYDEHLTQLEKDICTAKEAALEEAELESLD
Description: as §3

[15] = target: T13, BRD3 (1) (Homo sapiens, UniProt Q15059); assay: DSF bromodomain selectivity panel; format: binding; conditions: 10 μM compound
T13 construct: BRD3 (1); purchased in-house (SGC Frankfurt recombinant bromodomain DSF panel)
T13 sequence (Q15059 24-144 limits assumed): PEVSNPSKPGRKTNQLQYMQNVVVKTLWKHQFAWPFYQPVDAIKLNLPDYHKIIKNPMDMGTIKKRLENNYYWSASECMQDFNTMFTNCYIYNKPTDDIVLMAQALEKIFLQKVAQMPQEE
Description: as §3

[16] = target: T14, SMARCA2A (Homo sapiens, UniProt P51531); assay: DSF bromodomain selectivity panel; format: binding; conditions: 10 μM compound
T14 construct: purchased in-house (SGC Frankfurt recombinant bromodomain DSF panel)
T14 sequence (P51531 whole entry): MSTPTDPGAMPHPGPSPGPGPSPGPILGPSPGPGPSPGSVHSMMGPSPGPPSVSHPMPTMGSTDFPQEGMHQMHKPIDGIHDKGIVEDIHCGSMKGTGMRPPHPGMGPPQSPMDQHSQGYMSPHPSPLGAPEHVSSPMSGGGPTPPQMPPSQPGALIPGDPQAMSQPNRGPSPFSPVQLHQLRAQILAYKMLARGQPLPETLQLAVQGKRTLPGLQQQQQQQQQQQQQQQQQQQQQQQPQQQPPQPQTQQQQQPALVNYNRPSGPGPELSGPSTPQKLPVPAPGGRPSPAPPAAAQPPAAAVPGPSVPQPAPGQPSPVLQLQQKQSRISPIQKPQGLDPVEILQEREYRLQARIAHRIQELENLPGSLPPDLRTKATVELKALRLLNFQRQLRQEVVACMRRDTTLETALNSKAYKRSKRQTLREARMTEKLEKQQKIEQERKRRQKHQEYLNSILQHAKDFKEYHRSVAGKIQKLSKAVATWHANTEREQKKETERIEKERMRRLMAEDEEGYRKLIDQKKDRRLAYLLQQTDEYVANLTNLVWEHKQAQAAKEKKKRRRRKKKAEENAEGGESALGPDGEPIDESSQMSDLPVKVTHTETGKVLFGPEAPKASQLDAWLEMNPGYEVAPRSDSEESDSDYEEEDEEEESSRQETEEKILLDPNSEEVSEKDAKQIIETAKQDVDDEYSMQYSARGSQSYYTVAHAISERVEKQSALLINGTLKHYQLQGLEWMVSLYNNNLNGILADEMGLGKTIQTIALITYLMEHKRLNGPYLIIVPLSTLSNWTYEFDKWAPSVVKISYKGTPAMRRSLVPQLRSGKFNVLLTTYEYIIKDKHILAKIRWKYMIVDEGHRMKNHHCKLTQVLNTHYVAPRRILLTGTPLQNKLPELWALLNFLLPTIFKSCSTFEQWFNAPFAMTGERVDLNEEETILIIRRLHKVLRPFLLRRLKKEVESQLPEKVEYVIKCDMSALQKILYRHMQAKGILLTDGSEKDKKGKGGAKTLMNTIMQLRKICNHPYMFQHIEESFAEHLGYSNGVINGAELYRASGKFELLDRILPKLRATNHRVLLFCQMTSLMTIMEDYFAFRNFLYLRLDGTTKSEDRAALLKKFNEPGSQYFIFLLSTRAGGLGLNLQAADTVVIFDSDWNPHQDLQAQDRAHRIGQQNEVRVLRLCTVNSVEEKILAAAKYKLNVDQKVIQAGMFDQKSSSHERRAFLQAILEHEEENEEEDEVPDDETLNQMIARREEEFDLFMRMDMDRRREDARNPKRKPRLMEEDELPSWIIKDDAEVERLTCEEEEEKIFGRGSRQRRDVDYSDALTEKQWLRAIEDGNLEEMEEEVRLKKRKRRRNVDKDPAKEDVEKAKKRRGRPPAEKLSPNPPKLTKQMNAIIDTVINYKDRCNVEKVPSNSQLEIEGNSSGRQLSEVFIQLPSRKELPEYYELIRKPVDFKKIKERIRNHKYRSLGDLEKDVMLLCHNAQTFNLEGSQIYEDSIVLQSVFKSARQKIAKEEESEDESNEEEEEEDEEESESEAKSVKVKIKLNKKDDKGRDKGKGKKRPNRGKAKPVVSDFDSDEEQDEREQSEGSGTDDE
Description: as §3

[17] = target: BRD4 bromodomains (Homo sapiens, UniProt O60885); assay: NanoBRET target engagement assay, both bromodomains; format: cell-based
Description: The assay was performed as described previously.[17],[59] In brief, BRD4 bromodomains and full-length HDACs were obtained as plasmids cloned in-frame with a terminal NanoLuc fusion (Promega). Plasmids were transfected into HEK293T cells using FuGENE HD (Promega, E2312), and proteins were allowed to express for 20 h. Serially diluted inhibitor and the corresponding NanoBRET Tracer (Promega) at a concentration determined previously as the tracer KD, app were pipetted into white 384-well plates (Greiner #781207) for BRD assays or white 96-well plates (Corning #3600) for HDAC using an Echo acoustic dispenser (Labcyte). The corresponding protein-transfected cells were added and reseeded at a density of 2 × 10^5 cells/mL after trypsinization and resuspended in Opti-MEM without phenol red (Life Technologies). The system was allowed to equilibrate for 2 h at 37 °C/5% CO2 prior to BRET measurements. To measure BRET, NanoBRET NanoGlo substrate + Extracellular NanoLuc Inhibitor (Promega, N2540) was added as per the manufacturer’s protocol, and filtered luminescence was measured on a PHERAstar plate reader (BMG Labtech) equipped with a luminescence filter pair (450 nm BP filter (donor) and 610 nm LP filter (acceptor)). For lysed-mode NanoBRET experiments, digitonin (Promega, #G9441) was added as per the manufacturer’s instructions to a final concentration of […].

Structure (SMILES) | IC50 [1] [nM] | IC50 [2] [nM] | Mean Tm TAF1 (1) [3] [K] | Mean Tm BRPF1B [4] [K] | Mean Tm BRDT(1) [5] [K] | Mean Tm BRD1 [6] [K] | Mean Tm BRD2 (1) [7] [K] | Mean Tm BRD3 (2) [8] [K] | Mean Tm TRIM33B [9] [K] | Mean Tm TAF1LA (1) [10] [K] | Mean Tm BRPF3 [11] [K] | Mean Tm TAF1LA (2) [12] [K] | Mean Tm PB1A(6) [13] [K] | Mean Tm TAF1 (2) [14] [K] | Mean Tm BRD3 (1) [15] [K] | Mean Tm SMARCA2A [16] [K] | EC50 ([17]; BD1 and BD2, intact cells, read-out: NanoBRET EC50 BRD4 bromodomains) [nM] | EC50 ([17]; intact and permeabilized cells, read-out: NanoBRET EC50 both BRD4 bromodomains) [nM]
Cn1cc(-c2ccc(C(=O)Nc3ccccc3N)cc2)c2cc[nH]c2c1=O [NB462] | 400 ± 30 | 2700 ± 300 | 0.4 ± 0.1 | 0.8 ± 0.1 | 3.0 ± 0.2 | 0.2 ± 0.1 | 3.1 ± 0.5 | 6.1 ± 0.0 | 0.4 ± 0.1 | 0.3 ± 0.1 | -0.5 ± 0.1 | 1.7 ± 0.1 | 0.3 ± 0.1 | 1.3 ± 0.0 | 3.8 ± 0.3 | -0.1 ± 0.1 | 100 to 400 | 
Cn1cc(-c2ccc(C(=O)Nc3ccccc3N)nc2)c2cc[nH]c2c1=O [NB500] | 220 ± 20 | 3200 ± 400 |  |  |  |  |  |  |  |  |  |  |  |  |  |  |  | 
Cn1cc(-c2ccc(C(=O)Nc3cc(-c4ccccc4)ccc3N)cc2)c2cc[nH]c2c1=O [NB503] | 630 ± 80 | 2800 ± 200 | 1.0 ± 0.2 | 0.8 ± 0.3 | 3.3 ± 0.1 | 1.1 ± 0.1 | 3.2 ± 0.5 | 4.6 ± 0.7 | 0.5 ± 0.0 | 0.6 ± 0.3 | 1.2 ± 0.1 | 1.2 ± 0.0 | 1.3 ± 0.1 | 1.7 ± 0.1 | 3.8 ± 0.4 | 1.2 ± 0.5 |  | 
Cn1cc(-c2ccc(C(=O)Nc3cc(-c4ccccc4)ccc3N)nc2)c2cc[nH]c2c1=O [NB512] | 420 ± 50 | 3600 ± 400 |  |  |  |  |  |  |  |  |  |  |  |  |  |  |  | 100 to 400
